The Ki is the dissociation constant of the complex between target and ligand, obtained from inhibition or displacement. For orientation: melting point means the temperature of the solid-liquid transition.

The text below walks through data of patent US8642657B2 (Gruenenthal GmbH, priority 2003, dated 2014).

For series [1], the target named is T1, rat VR1 (Rattus norvegicus, UniProt O35433).
T1 construct: expressed in transfected cells
The settings on record: rat VR1 expressed in CHO cells; cited from earlier work.

Series [2] concerns the target T1, rat VR1. As to the kind of experiment: [3H]resiniferatoxin (RTX) competition binding assay, VR1-transfected CHO cells. The method, boiled down:
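Competition with [3H]RTX (50-100 pM) ran 60 min at 37° C using whole VR1-induced CHO cells in BSA-containing DPBS, nonspecific defined by 100 nM cold RTX. After centrifugation, pellet radioactivity counted by scintillation; Hill fits gave Ki and cooperativity.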

The target of series [3] is T1, rat VR1. Put plainly: 45Ca2+-uptake assay in CHO/VR1 cells, antagonism of capsaicin-stimulated uptake. Type of series: cell-based. The settings on record: 45Ca2+ uptake stimulated by 50 nM capsaicin.
Setting [4] is: competition with [3H]RTX, rat VR1 in CHO cells, read-out: Ki (nM) Binding Affinity.

T1 sequence (O35433 whole entry): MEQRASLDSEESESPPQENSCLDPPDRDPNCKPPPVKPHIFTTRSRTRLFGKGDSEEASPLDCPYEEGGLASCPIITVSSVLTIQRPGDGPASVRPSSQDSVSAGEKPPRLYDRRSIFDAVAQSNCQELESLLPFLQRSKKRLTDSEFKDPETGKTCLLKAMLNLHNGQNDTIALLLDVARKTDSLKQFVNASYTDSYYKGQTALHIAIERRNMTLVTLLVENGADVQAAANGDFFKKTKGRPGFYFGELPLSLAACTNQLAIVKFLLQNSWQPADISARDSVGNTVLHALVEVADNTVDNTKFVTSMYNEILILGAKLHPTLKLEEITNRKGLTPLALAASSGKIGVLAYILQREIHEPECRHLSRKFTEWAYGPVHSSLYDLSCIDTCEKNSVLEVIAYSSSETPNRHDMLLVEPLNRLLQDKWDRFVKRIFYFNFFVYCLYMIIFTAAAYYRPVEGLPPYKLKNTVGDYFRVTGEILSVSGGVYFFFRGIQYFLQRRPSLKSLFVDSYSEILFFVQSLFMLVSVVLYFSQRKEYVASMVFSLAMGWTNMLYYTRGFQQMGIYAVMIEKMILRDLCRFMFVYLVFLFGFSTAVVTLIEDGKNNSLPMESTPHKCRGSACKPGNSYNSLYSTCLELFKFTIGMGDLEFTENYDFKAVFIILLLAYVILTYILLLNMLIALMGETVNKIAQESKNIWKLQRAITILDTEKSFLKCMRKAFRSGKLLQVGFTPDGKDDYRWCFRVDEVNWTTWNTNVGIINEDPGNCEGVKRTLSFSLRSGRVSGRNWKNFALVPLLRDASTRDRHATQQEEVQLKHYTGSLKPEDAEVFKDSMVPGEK

`Cc1ccc(CC(CNC(=S)NCc2ccc(NS(C)(=O)=O)cc2)COC(=O)C(C)(C)C)cc1C` (stereo not shown) [Compound 1, N-[2-(3,4-dimethylbenzyl)-3-pivaloyloxypropyl]-N′-[4-(methylsulfonylamino)benzyl]thiourea]: the agonism/antagonism character entry on rat VR1 [1] is given as “partial agonism”.
With `CC(C(=O)NCc1ccc(Cl)cc1)c1ccc(NS(C)(=O)=O)c(Br)c1` (stereo not shown) [4-3, N-(4-Chlorobenzyl)-2-[3-bromo-4-(methylsulfonylamino)phenyl]propionamide], the melting point worked out at 147 °C. The compound also showed a Ki on rat VR1 [2] of 541 nM. At rat VR1 [3], this compound gave a Ki of 296 nM.
`CC(C(=O)NCc1ccc(C(C)(C)C)cc1)c1ccc(NS(C)(=O)=O)c(Br)c1` (stereo not shown) [1-53, N-(4-tert-Butylbenzyl)-2-[3-bromo-4-(methylsulfonylamino)phenyl]propionamide] yielded a melting point of 66 to 67 °C. At rat VR1 [2] (setting [4]), the Ki was found to be 7.41 nM. The affinity at rat VR1 [3] corresponds to a Ki of 24.9 nM.
Take `Cc1ccc(CC(CNC(=O)C2(c3ccc(NS(C)(=O)=O)c(F)c3)CC2)COC(=O)C(C)(C)C)cc1C` (stereo not shown) [12-2, N-[2-(3,4-Dimethylbenzyl)-3-pivaloyloxypropyl]-1-[3-fluoro-4-(methylsulfonylamino)phenyl]cyclopropanecarboxamide]: the melting point lay in the range of 55 to 56 °C. The Ki at rat VR1 [2] (setting [4]) was 1580 nM. Moreover, affinity on rat VR1 [3] was put at a Ki of 567 nM.
On to `Cc1ccc(C=CC(=O)NC(C)c2ccc(NS(C)(=O)=O)c(F)c2)cc1C` (stereo not shown) [24-5, N-{1-[3-Fluoro-4-(methylsulfonylamino)phenyl]ethyl}-3-(3,4-dimethylphenyl)-2-propenamide], for which the melting point was in the range of 212 to 213 °C. Moreover, the Ki on rat VR1 [2] is 2520 nM. Affinity on rat VR1 [3] was put at a Ki of 1350 nM.
The like results for `Cc1ccc(CC(CNC(=O)C(C)(C)c2ccc(NS(C)(=O)=O)c(F)c2)COC(=O)C(C)(C)C)cc1C` (stereo not shown) [9-2, N-[2-(3,4-Dimethylbenzyl)-3-pivaloyloxypropyl]-2-[3-fluoro-4-(methylsulfonylamino)phenyl]-2-methylpropionamide] were, in that order, 53 to 55 °C, 276 nM and 65.4 nM.
`CC(C(=O)NCC=C1c2ccccc2CCc2ccccc21)c1ccc(NS(C)(=O)=O)c(F)c1` (stereo not shown) [4-28, N-[2-(10,11-Dihydro-5H-dibenzo[a,d]cyclohepten-5-yliden)ethyl]-2-[3-fluoro-4-(methylsulfonylamino)phenyl]propionamide] registered a melting point of 67 to 69 °C. The Ki on rat VR1 [2] (setting [4]) amounted to 141 nM. The compound further showed a Ki on rat VR1 [3] of 121 nM.
Turning to `C[C@@H](C(=O)NC[C@H](COC(=O)C(C)(C)C)Cc1ccc(C(C)(C)C)cc1)c1ccc(NS(C)(=O)=O)c(F)c1` [6-12, N-[(2R)-2-(4-t-Butylbenzyl)-3-(pivaloyloxy)propyl]-(2R)-2-[3-fluoro-4-(methylsulfonylamino)phenyl]propionamide], the melting point was in the range of 43 to 45 °C. In addition, the Ki on rat VR1 [2] (setting [4]) turned out to be 53 nM. Also, the Ki at rat VR1 [3] came out at 30.3 nM.
Turning to `CC(NC(=S)NCc1ccc(C(C)(C)C)cc1)c1ccc(NS(C)(=O)=O)c(F)c1` (stereo not shown) [15-2, N-(4-t-Butylbenzyl)-N′-{1-[3-fluoro-4-(methylsulfonylamino)phenyl]ethyl}thiourea], the melting point came out at 165 °C. Moreover, the Ki on rat VR1 [2] (setting [4]) was 54 nM. Besides, the affinity at rat VR1 [3], expressed as Ki, was 9.16 nM.
The compound `COc1cc(C2(C(=O)NCc3ccc(C(C)(C)C)cc3)CC2)ccc1NS(C)(=O)=O` [12-9, N-(4-tert-Butylbenzyl)-1-[3-methoxy-4-(methylsulfonylamino)phenyl]cyclopropanecarboxamide] returned a melting point of 200 to 203 °C. Further, the Ki on rat VR1 [2] (setting [4]) came out at 745 nM. This compound registered a Ki at rat VR1 [3] of 2250 nM.
The like results for `CC(C(=O)NCC=C(c1ccc(F)cc1)c1ccc(F)cc1)c1ccc(NS(C)(=O)=O)c(F)c1` (stereo not shown) [4-27, N-[3,3-Di(4-fluorophenyl)-2-propenyl]-2-[3-fluoro-4-(methylsulfonylamino)phenyl]propionamide] were, in that order, 57 to 60 °C, 43.3 nM and 29.3 nM.
Compound `C[C@H](NC(=S)NC[C@H](COC(=O)C(C)(C)C)Cc1ccccc1)c1ccc(NS(C)(=O)=O)cc1` [18-3, N-[(2R)-2-Benzyl-3-(pivaloyloxy)propyl]-N′-{(1S)-1-[4-(methylsulfonylamino)phenyl]ethyl}thiourea] displayed a melting point of 58 to 62 °C. The Ki on rat VR1 [2] was determined as 1140 nM. On rat VR1 [3], this compound yielded a Ki of 3470 nM.
With `CC(C)(C)c1ccc(CNC(=S)NC2(c3ccc(NS(C)(=O)=O)cc3)CC2)cc1` [22-7, N-(4-t-Butylbenzyl)-N′-{1-[4-(methylsulfonylamino)phenyl]cyclopropyl}thiourea], the melting point lay within 110 to 113 °C. At rat VR1 [2] (setting [4]), the Ki came to 171 nM. Affinity at rat VR1 [3] was put at a Ki of 60.3 nM.
Compound `CC(C)(C)c1ccc(CNC(=O)C(C)(C)c2ccc(NS(C)(=O)=O)c(F)c2)cc1` [9-8, N-(4-tert-Butylbenzyl)-2-[3-fluoro-4-(methylsulfonylamino)phenyl]-2-methylpropionamide] displayed a melting point of 48 to 51 °C. In addition, the Ki at rat VR1 [2] (setting [4]) was 1070 nM. The same compound showed a Ki on rat VR1 [3] of 467 nM.
Regarding `COc1cc(C(C)C(=O)NCC(COC(=O)C(C)(C)C)Cc2ccc(C)c(C)c2)ccc1NS(C)(=O)=O` (stereo not shown) [5-5, N-[2-(3,4-Dimethylbenzyl)-3-pivaloyloxypropyl]-2-[3-methoxy-4-(methylsulfonylamino)phenyl]propionamide], the melting point was in the range of 54 to 57 °C. For the same compound, the Ki at rat VR1 [2] (setting [4]) worked out at 71.2 nM. Further, the Ki at rat VR1 [3] came out at 13.6 nM.
Consider `CC(C(=O)NCc1ccc(C(C)(C)C)cc1)c1cc(F)c(NS(C)(=O)=O)c(F)c1` (stereo not shown) [1-55, N-(4-tert-Butylbenzyl)-2-[3,5-difluoro-4-(methylsulfonylamino)phenyl]propionamide], for which the melting point is 80 to 81 °C. Also, the Ki on rat VR1 [2] (setting [4]) came to 19.9 nM. The Ki on rat VR1 [3] was 7.38 nM.
With `CC(C)(C)c1ccc(CNC(=O)C(C)(C)c2ccc(NS(C)(=O)=O)cc2)cc1` [9-7, N-(4-tert-Butylbenzyl)-2-[4-(methylsulfonylamino)phenyl]-2-methylpropionamide], the melting point is 141 to 143 °C. Affinity at rat VR1 [2] was put at a Ki of 425 nM. For the same compound, the affinity on rat VR1 [3], expressed as Ki, was 2550 nM.
`CC(NC(=O)Cc1ccc(C(C)(C)C)cc1)c1ccc(NS(C)(=O)=O)c(F)c1` (stereo not shown) [24-1, N-{1-[3-Fluoro-4-(methylsulfonylamino)phenyl]ethyl}-3-(4-tert-butylphenyl)acetamide] displayed a melting point of 134 to 136 °C. The Ki on rat VR1 [2] (setting [4]) was found to be 2130 nM. In addition, the Ki at rat VR1 [3] was determined as 2220 nM.
